Test results reported in patent US20140213632A1, “HCV Combination Therapy” (Stella Aps, priority 2011, published 2014).
Where two headings read alike, the source gives them in different places.

Experiments:
[1] = tested on: HCV genotype 1b replicon NS5B M423I; format: cell-based; details: EC50 mutant / EC50 wild-type; mean of two experiments (individual values); 72 hours
Method: (§1) The objective of this study was to evaluate the in vitro antiviral activity of miravirsen (SPC3649) against wild-type HCV genotype Ib replicon and NS3, NS5A and NS5B drug-resistant HCV genotype 1 b replicons in transient transfection assays utilizing Huh 7 cells. Method: The in vitro antiviral of miravirsen was evaluated against wild-type HCV genotype 1 b replicon and HCV genotype 1 b replicons constructed to contain key amino acid substitutions in NS3 protease (A156T, R155K), NS5B polymerase (S282T, M423I) and NS5A protein (Y93H) in transient transfection assays utilizing Huh 7 cells. […] Huh 7 cells were transfected with either the wild-type or the mutant RNA constructs by electroporation. Luciferase activity was measured 72 hours after compound treatment and EC50 values determined from dose-response curves. Fold resistance was expressed as the ratio of the EC50 for mutant HCV replicon to the EC50 for wild-type HCV replicon.
(§2) The in vitro antiviral of miravirsen was evaluated against wild-type HCV genotype Ib replicon and HCV replicons constructed to contain key amino acid substitutions in NS3 protease (A156T, R155K), NS5B polymerase (S282T, M423I) and NS5A protein (Y93H) in transient transfection assays. […] Huh 7 cells were transfected with either the wild type or the mutant RNA constructs by electroporation. Luciferase activity was measured 72 hours after compound treatment and EC50 values determined from dose-response curves. Fold resistance was expressed as the ratio of the EC50 for mutant HCV replicon to the EC50 for wild-type HCV replicon. Results are expressed as the mean of two individual experiments. In an initial set of experiments, the standard protocol was modified by adding compounds 24 hours after electroporation. […] In a third experiment cells were pretreated with miravirsen for 24 hours before electroporation with wild-type RNA constructs to determine if preincubation could result in increased miravirsen antiviral activity.

[2] = tested on: HCV genotype 1b replicon NS3 R155K; format: cell-based; details: EC50 mutant / EC50 wild-type; mean of two experiments (individual values); 72 hours
Method: as §1, §2

[3] = tested on: HCV genotype 1b replicon NS3 A156T; format: cell-based; details: EC50 mutant / EC50 wild-type; mean of two experiments (individual values); 72 hours
Method: as §1, §2

[4] = tested on: HCV genotype 1b replicon NS5B S282T; format: cell-based; details: EC50 mutant / EC50 wild-type; mean of two experiments (individual values); 72 hours
Method: as §1, §2

[5] = tested on: HCV genotype 1b replicon NS5A Y93H; format: cell-based; details: EC50 mutant / EC50 wild-type; mean of two experiments (individual values); 72 hours
Method: as §1, §2

[6] = tested on: Huh-luc/neo-ET cells
Method: Eight dilutions of non-transfected antimiR oligonucleotide (bracketing the calculated EC50) were evaluated in triplicate on duplicate sets of three plates with five dilutions of each of the control compounds (bracketing the calculated EC50). One set of plates was used for the determination of cellular toxicity and the other set of plates was used for the determination of anti-viral efficacy. The efficacy and toxicity results was quantified with firefly luciferase activity and XTT dye reduction, respectively, and the results of the assay is imported into the Prichard and Shipman MacSynergy II software program. […] The expected level of activity at each of the concentration data points was compared to the experimentally determined antiviral activity in the assay. The expected activity was subtracted from the realized activity, yielding a negative, zero or positive value. […]
The cells were treated with trypsin and enumerated by staining with trypan blue and seeded into 96-well tissue culture plates at a cell culture density 5.0×10^3 cells per well in a volume of 85 f.IL per well and incubated at […] in an environment of 5% CO2 for 24 hours. […] Following incubation, the plates were assessed for anti-HCV activity by measurement of luciferase reporter activity and cellular cytotoxicity by XTT staining.

[7] = tested on: HCV genotype Ib replicon in Huh-luc/neo-ET cells; format: cell-based, HCV genotype 1b; details: for interaction: SPC3649 with 2-methyl cytidine
Method: The anti-viral efficacy and cellular toxicity of non-transfected antimiR oligonucleotide in combination with approved and experimental anti-HCV therapeutics (e.g. BMS-790052) (or other NS5A inhibitors), was determined in the reporter cell line Huh-luc/neo-ET. This cell line harbors the persistently replicating I389luc-ubi-neo/NS3-37ET replicon containing the firefly luciferase gene-ubiquitin-neomycin phosphotransferase fusion protein and EMCV IRES driven NS3-5B HCV coding sequences containing the ET tissue culture adaptive mutations (E1202G, T1208I, and K1846T). Eight dilutions of non-transfected antimiR oligonucleotide (bracketing the calculated EC50) were evaluated in triplicate on duplicate sets of three plates with five dilutions of each of the control compounds (bracketing the calculated EC50). One set of plates was used for the determination of cellular toxicity and the other set of plates was used for the determination of anti-viral efficacy. The efficacy and toxicity results was quantified with firefly luciferase activity and XTT dye reduction, respectively, and the results of the assay is imported into the Prichard and Shipman MacSynergy II software program. The MacSynergy II analysis includes calculation of the dose response of the two (or more) compounds when used alone followed by calculation of the expected additive level of antiviral inhibition or toxicity when the compounds are used together based on the individual dose response curves. The expected level of activity at each of the concentration data points was compared to the experimentally determined antiviral activity in the assay. The expected activity was subtracted from the realized activity, yielding a negative, zero or positive value. […]
The combination antiviral assays were performed using the reporter cell line Huh-luc/neo-ET, which contains a bicistronic HCV genotype Ib replicon. Combination data were analyzed using MacSynergy II software at the 95%, confidence interval. […]

Compound: CC(C)(C)C#Cc1cc(N(C(=O)[C@H]2CC[C@H](C)CC2)[C@H]2CC[C@H](O)CC2)c(C(=O)O)s1 [VX-222]
- Fold Resistance NS5B M423I [1]: 4.4 (3.6, 5.2) fold

Compound: CCC[C@H](NC(=O)[C@@H]1[C@H]2CCC[C@H]2CN1C(=O)[C@@H](NC(=O)[C@@H](NC(=O)c1cnccn1)C1CCCCC1)C(C)(C)C)C(=O)C(=O)NC1CC1 [Telaprevir, (1S,3aR,6aS)-2-[(2S)-2-[[(2S)-2-Cyclohexyl-2-(pyrazine-2-carbonylamino)acetyl]amino]-3,3-dimethylbutanoyl]-N-[(3S)-1-(cyclopropylamino)-1,2-dioxohexan-3-yl]-3,3a,4,5,6,6a-hexahydro-1H-cyclopenta[c]pyrrole-1-carboxamide]
- Fold Resistance NS3 R155K [2]: 4.6 (5.0, 4.2) fold

Compound: 5′-^mCs^ocsAs^otstsGs^oTs^ocsas^mCs^oas^mCs^ots^mCs^omCo-3′ (CCATTGTCACACTCC; all phosphorothioate, sugars by position and methylation of C not given here; further chemistry not fully specified) [miravirsen]
- Fold Resistance NS3 A156T [3]: 1.0 (1.4, 0.5) fold
- Fold Resistance NS5B S282T [4]: 1.9 (2.6, 1.1) fold
- Fold Resistance NS5A Y93H [5]: 0.9 (0.8, 0.9) fold
- Fold Resistance NS3 R155K [2]: 1.2 (1.9, 0.4) fold
- Fold Resistance NS5B M423I [1]: 1.7 (2.3, 1.0) fold

Compound: 5′-Ts·^oc^·sAs·^otsa^·s^mCs·^oTs·^oa^·stsAs·^otsGs·^oa^·s^mCs·^oA·^o-3′ [SPC4729]
- Cytotoxicity, Synergy vol [6]: 0.00/−44.3 μM^2%
- Cytotoxicity, Antag Vol ([6]; Ribavirin plus the named compound, 95% confidence level): 0.00/−44.3 μM^2%
- overall interaction (antiviral) ([7]; ribavirin plus the named compound): antagonistic

Compound: C[C@@]1(O)[C@H](O)[C@@H](CO)O[C@H]1n1ccc(N)nc1=O [2′-C-Methylcytidine]
- interaction ([7]; third replicate): slightly antagonistic interaction
- interaction ([7]; two of the assay replicates): positive interactions
